{
  "source": "patent US12492192B2",
  "about": "“Crystalline form of lifitegrast, and pharmaceutical composition comprising the same” (YS LIFE SCIENCE CO. LTD., priority 2020, dated 2025)",
  "assay_type_in_all_cases": "physicochemical",
  "key": {"[1]": {"test": "Hygroscopicity test (DVS)", "settings": "for Moisture Absorption at 25° C./80% RH: DVS, isothermal 25° C.; for Hygroscopicity (DVS analysis, in words): 25° C., relative humidity 5-95%, EP standard 25° C., 80% RH", "description": "Using a DVS (dynamic vapor absorption, VTI SGA-100, TA Instruments) which is a vapor adsorption and desorption device, crystalline forms Y and S of lifitegrast obtained from the Examples and crystalline form A of lifitegrast obtained from the Comparative Example were subjected to moisture adsorption and desorption once repeatedly, respectively, at an isothermal condition of 25° C. and in a relative humidity range of 5-95% with an interval of 5% RH."}, "Solubility test in water": {"test": "Solubility test in water", "settings": "for Solubility in water: stirred at room temperature; for Solubility compared with that of crystalline form A: room temperature, relative to crystalline form A", "description": "After crystalline forms Y and S of lifitegrast obtained from the Examples and crystalline form A of lifitegrast obtained from the Comparative Example were dissolved in water, respectively, they were sufficiently stirred at room temperature to perform a solubility test."}, "[2]": {"test": "Thermal stability test (XRPD and HPLC after storage)", "settings": "40° C./75% RH, 4 weeks, brown vial in aluminum pouch", "description": "50 mg of crystalline form Y and 50 mg of crystalline form S obtained from the Examples were put into brown vials, respectively, and secondary packaging was carried out in an aluminum pouch, followed by storing at 40±2° C. and 75±5% RH. After 4 weeks, each sample was taken out, X-ray powder diffraction (XRPD) analysis was performed to evaluate the stability of the crystalline form, and high performance liquid chromatography (HPLC) analysis was performed to evaluate the generation and increase of related substances.\nThe results of the X-ray powder diffraction (XRPD) analysis and high performance liquid chromatography (HPLC) analysis are shown in Table 5 and 6, respectively."}},
  "note": "“Also recorded” adds a separate entry of the source.",
  "data": [
    {"smiles": "CS(=O)(=O)c1cccc(C[C@H](NC(=O)c2c(Cl)cc3c(c2Cl)CCN(C(=O)c2ccc4ccoc4c2)C3)C(=O)O)c1", "note": "[Crystalline Form A, lifitegrast]", "values": [
      {"measurement": "Moisture Absorption at 25° C./80% RH", "setting": "[1]", "result": 1.0, "unit": "%"},
      {"measurement": "Solubility in water", "setting": "Solubility test in water", "result": 32, "unit": "µg/mL"}
    ]},
    {"smiles": "CS(=O)(=O)c1cccc(C[C@H](NC(=O)c2c(Cl)cc3c(c2Cl)CCN(C(=O)c2ccc4ccoc4c2)C3)C(=O)O)c1", "note": "[Crystalline Form S, lifitegrast]", "values": [
      {"measurement": "Generation and increase of related substances (HPLC analysis)", "setting": "[2]", "result": "no related substance was observed; also recorded: No generation of Related"},
      {"measurement": "Stability of the crystalline form (XRPD analysis)", "setting": "[2]", "result": "did not change in appearance and polymorphism; also recorded: Retention of Crystalline Form"},
      {"measurement": "Hygroscopicity (DVS analysis, in words)", "setting": "[1]", "result": "low hygroscopicity; also recorded: lower hygroscopicity than the crystalline form A"},
      {"measurement": "Moisture Absorption at 25° C./80% RH", "setting": "[1]", "result": 0.1, "unit": "%"},
      {"measurement": "Solubility compared with that of crystalline form A", "setting": "Solubility test in water", "result": "twice or more"},
      {"measurement": "Solubility in water", "setting": "Solubility test in water", "result": 64, "unit": "µg/mL"}
    ]},
    {"smiles": "CS(=O)(=O)c1cccc(C[C@H](NC(=O)c2c(Cl)cc3c(c2Cl)CCN(C(=O)c2ccc4ccoc4c2)C3)C(=O)O)c1", "note": "[Crystalline Form Y, lifitegrast]", "values": [
      {"measurement": "Generation and increase of related substances (HPLC analysis)", "setting": "[2]", "result": "no related substance was observed; also recorded: No generation of Related"},
      {"measurement": "Stability of the crystalline form (XRPD analysis)", "setting": "[2]", "result": "did not change in appearance and polymorphism; also recorded: Retention of Crystalline Form"},
      {"measurement": "Hygroscopicity (DVS analysis, in words)", "setting": "[1]", "result": "low hygroscopicity"},
      {"measurement": "Moisture Absorption at 25° C./80% RH", "setting": "[1]", "result": 2.9, "unit": "%"},
      {"measurement": "Solubility compared with that of crystalline form A", "setting": "Solubility test in water", "result": "twice or more"},
      {"measurement": "Solubility in water", "setting": "Solubility test in water", "result": 67, "unit": "µg/mL"}
    ]}
  ]
}
